Measured values reported in US20260354380A1, “PYRAZOLO PESTICIDAL COMPOUNDS” (BASF SE, priority 2022, published 2026).

Experiments:
Assay type in all cases: in vivo
Plutella xylostella = assay: Action on Diamond Back Moth (Plutella xylostella), cabbage leaf dip, 3rd instar larvae; conditions: 300 ppm, 3rd instar larvae, 72 hours after treatment
Procedure: Example B6: Action on Diamond Back Moth (Plutella xylostella)
The active compound is dissolved at the desired concentration in a mixture of 1:1 (v/v) distilled water:acetone. Surfactant (Kinetic® HV) is added at a rate of 0.01% (v/v). The test solution is prepared at the day of use.
Leaves of cabbage were dipped in test solution and air-dried. Treated leaves were placed in petri dishes lined with moist filter paper and inoculated with ten 3rd instar larvae. Mortality was recorded 72 hours after treatment. Feeding damages were also recorded using a scale of 0-100%.
(§1) Compounds disclosed in the document WO2021013561 were prepared according to procedures described therein and their pesticidal activities were determined by procedure analogues to the procedures as described above in examples B6 and B7.

Heliothis virescens = assay: Action on Tobacco Budworm (Heliothis virescens); conditions: 800 ppm, egg and larval mortality, 5 days
Procedure: Example B5: Action on Tobacco Budworm (Heliothis virescens)
For evaluating control of tobacco budworm (Heliothis virescens) the test unit consisted of 96-well-microtiter plates containing an insect diet and 15-25 H. virescens eggs.
The compounds were formulated using a solution containing 75% v/v water and 25% v/v DMSO. Different concentrations of formulated compounds were sprayed onto the insect diet at 10 μl, using a custom-built micro atomizer, at two replications.
After application, microtiter plates were incubated at about 28±1 °C and about 80±5% relative humidity for 5 days. Egg and larval mortality were then visually assessed.

Aedes aegypti = assay: whole plant or invertebrate; conditions: for mortality in comparison with untreated controls: 800 ppm, larvae, 2 days
Procedure: Example B1: Action on Yellow Fever Mosquito (Aedes aegypti)
For evaluating control of yellow fever mosquito (Aedes aegypti) the test unit consisted of 96-well-microtiter plates containing 200 μl of tap water per well and 5-15 freshly hatched A. aegypti larvae.
The active compounds or mixtures were formulated using a solution containing 75% (v/V) water and 25% (v/v) DMSO. Different concentrations of formulated compounds or mixtures were sprayed onto the insect diet at 2.5 μl, using a custom-built micro atomizer, at two replications. For experimental mixtures in these tests identical volumes of both mixing partners at the desired concentrations respectively, were mixed together.
After application, microtiter plates were incubated at 28±1 °C, 80±5% RH for 2 days. Larval mortality was then visually assessed.

Anthonomus grandis = assay: Action on Boll Weevil (Anthonomus grandis); conditions: 800 ppm, egg and larval mortality, 5 days
Procedure: Example B3: Action on Boll Weevil (Anthonomus grandis)
For evaluating control of boll weevil (Anthonomus grandis) the test unit consisted of 96-well-microtiter plates containing an insect diet and 5-10 A. grandis eggs.
The compounds were formulated using a solution containing 75% (v/v) water and 25% (v/v) DMSO. Different concentrations of formulated compounds were sprayed onto the insect diet at 5 μl, using a custom-built micro atomizer, at two replications.
After application, microtiter plates were incubated at about 25±1 °C and about 75±5% relative humidity for 5 days. Egg and larval mortality were then visually assessed.

Spodoptera eridania = assay: Action on Southern Armyworm (Spodoptera eridania), 2nd Instar Larvae; conditions: 300 ppm, 2nd instar larvae, 4 days after treatment
Procedure: Example B7: Action on Southern Armyworm (Spodoptera eridania), 2nd Instar Larvae
The active compounds were formulated by a Tecan liquid handler in 100% cyclohexanone as a 10,000 ppm solution supplied in tubes. The 10,000 ppm solution was serially diluted in 100% cyclohexanone to make interim solutions. These served as stock solutions for which final dilutions were made by the Tecan in 50% acetone: 50% water (v/v) into 10 or 20 ml glass vials. A nonionic surfactant (Kinetic®) was included in the solution at a volume of 0.01% (v/v). The vials were then inserted into an automated electrostatic sprayer equipped with an atomizing nozzle for application to plants/insects.
Lima bean plants (variety Sieva) were grown 2 plants to a pot and selected for treatment at the 1st true leaf stage. Test solutions were sprayed onto the foliage by an automated electrostatic plant sprayer equipped with an atomizing spray nozzle. The plants were dried in the sprayer fume hood and then removed from the sprayer. Each pot was placed into perforated plastic bags with a zip closure. About 10 to 11 armyworm larvae were placed into the bag and the bags zipped closed. Test plants were maintained in a growth room at about 25 °C and about 20-40% relative humidity for 4 days, avoiding direct exposure to fluorescent light (24 hour photoperiod) to prevent trapping of heat inside the bags. Mortality and reduced feeding were assessed 4 days after treatment, compared to untreated control plants.
as §1

SMILES | mortality in comparison with untreated controls (Plutella xylostella) | mortality in comparison with untreated controls (Heliothis virescens) | mortality in comparison with untreated controls (Aedes aegypti) | mortality in comparison with untreated controls (Anthonomus grandis) | mortality in comparison with untreated controls (Spodoptera eridania) | mortality at 300 ppm (Plutella xylostella; Plutella xylostella, foliar, read-out: mortality in comparison with untreated controls) [%] | mortality at 800 ppm (Heliothis virescens; Heliothis virescens, 120 h, read-out: mortality in comparison with untreated controls) [%] | mortality at 800 ppm (Aedes aegypti; Aedes aegypti, 48 h, read-out: mortality in comparison with untreated controls) [%] | mortality at 800 ppm (Anthonomus grandis; Anthonomus grandis, 120 h, read-out: mortality in comparison with untreated controls) [%] | mortality at 300 ppm (Spodoptera eridania; Spodoptera eridania, 96 h, read-out: mortality in comparison with untreated controls) [%]
Cc1ccc(C(C)C)c(N2C(=O)CSC2=NC(=O)Nc2ccc(-n3cc(NC(=O)c4ccc(C5CC5(F)F)cc4)c(C)n3)cc2)c1 (racemic) [Example C-65] | at least 75% | at least 75% | at least 50% | at least 75% | at least 75% |  |  |  |  | 
Cc1ccc(C(C)C)c(N2C(=O)CS/C2=N\C(=O)Nc2ccc(-n3nc(C)c(NC(=O)c4ccc(OC(F)(F)F)cc4)c3C3CC3)cc2)c1 [Example C-5, N-[5-cyclopropyl-1-[4-[[(Z)-[3-(2-isopropyl-5-methyl-phenyl)-4-oxo-thiazolidin-2-ylidene]carbamoyl]amino]phenyl]-3-methyl-pyrazol-4-yl]-4-(trifluoromethoxy)benzamide] |  |  |  |  |  | ≥ 75 | ≥ 75 | ≥ 50 | ≥ 75 | ≥ 75
Cc1nn(-c2ccc(NC(=O)N=C3SCC(=O)N3c3ccccc3C(C)C)cc2)cc1NC(=O)c1ccc(OC(F)(F)F)cc1 [Example C-8] | at least 75% | at least 75% | at least 50% | at least 75% | at least 75% |  |  |  |  | 
Cc1ccc(C(F)(F)F)c(N2C(=O)CSC2=NC(=O)Nc2ccc(-n3cc(NC(=O)c4ccc(OC(F)(F)F)cc4)c(C)n3)cc2)c1 [Example C-12] | at least 75% | at least 75% | at least 50% | at least 75% | at least 75% |  |  |  |  | 
Cc1ccc(C(C)C)c(N2C(=O)CS/C2=N\C(=O)Nc2ccc(-n3cc(NC(=O)c4ccc(OC(F)(F)F)cc4)c(C)n3)cc2C#N)c1 [Example C-13] | at least 75% | at least 75% | at least 50% | at least 75% | at least 75% |  |  |  |  | 
COc1cc(-n2cc(NC(=O)c3ccc(OC(F)(F)F)cc3)c(C)n2)ccc1NC(=O)/N=C1\SCC(=O)N1c1cc(C)ccc1C(C)C [Example C-14] | at least 75% | at least 75% | at least 50% | at least 75% | at least 75% |  |  |  |  | 
Cc1ccc(C(C)C)c(N2C(=O)CS/C2=N\C(=O)Nc2ccc(-n3nc(C)c(NC(=O)c4ccc(OC(F)(F)F)cc4)c3C)cc2)c1 [Example C-15] | at least 75% | at least 75% | at least 50% | at least 75% | at least 75% |  |  |  |  | 
Cc1ccc(C(F)(F)F)c(N2C(=O)CS/C2=N\C(=O)Nc2ccc(-n3nc(C)c(NC(=O)c4ccc(OC(F)(F)F)cc4)c3C)cc2)c1 [Example C-16] | at least 75% | at least 75% | at least 50% | at least 75% | at least 75% |  |  |  |  | 
Cc1ccc(C(C)C)c(N2C(=O)CS/C2=N\C(=O)Nc2ccc(-n3nc(C)c(NC(=O)c4ccc(OC(F)(F)F)c(F)c4)c3C)c(F)c2)c1 [Example C-21] | at least 75% | at least 75% | at least 50% | at least 75% | at least 75% |  |  |  |  | 
Cc1ccc(C(C)C)c(N2C(=O)CS/C2=N\C(=O)Nc2ccc(-n3cc(NC(=O)c4ccc(Cl)c(Cl)c4)c(C)n3)cc2)c1 [Example C-26] | at least 75% | at least 75% | at least 50% | at least 75% | at least 75% |  |  |  |  | 
Cc1ccc(C(C)C)c(N2C(=O)CS/C2=N\C(=O)Nc2ccc(-n3cc(NC(=O)c4ccc(F)c(Cl)c4)c(C)n3)cc2)c1 [Example C-28] | at least 75% | at least 75% | at least 50% | at least 75% | at least 75% |  |  |  |  | 
Cc1ccc(C(C)C)c(N2C(=O)CS/C2=N\C(=O)Nc2ccc(-n3cc(NC(=O)c4ccc(Br)cc4)c(C)n3)cc2)c1 [Example C-30] | at least 75% | at least 75% | at least 50% | at least 75% | at least 75% |  |  |  |  | 
Cc1ccc(C(C)C)c(N2C(=O)CS/C2=N\C(=O)Nc2ccc(-n3cc(NC(=O)c4ccc(CBr)cc4)c(C)n3)cc2)c1 [Example C-31] | at least 75% | at least 75% | at least 50% | at least 75% | at least 75% |  |  |  |  | 
COc1ccc(C(=O)Nc2cn(-c3ccc(NC(=O)/N=C4\SCC(=O)N4c4cc(C)ccc4C(C)C)cc3)nc2C)cc1 [Example C-32] | at least 75% | at least 75% | at least 50% | at least 75% | at least 75% |  |  |  |  | 
C#Cc1ccc(C(=O)Nc2cn(-c3ccc(NC(=O)/N=C4\SCC(=O)N4c4cc(C)ccc4C(C)C)cc3)nc2C)cc1 [Example C-34] | at least 75% | at least 75% | at least 50% | at least 75% | at least 75% |  |  |  |  | 
Cc1ccc(C(C)C)c(N2C(=O)CS/C2=N\C(=O)Nc2ccc(-n3cc(NC(=O)c4ccc(C#N)cc4Cl)c(C)n3)cc2)c1 [Example C-35] | at least 75% | at least 75% | at least 50% | at least 75% | at least 75% |  |  |  |  | 
